PubChem BioAssay (NCI)
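1) Cells in 96-well plates. 2) Compound, 48 h, 5 concentrations. 3) Linear interpolation between surrounding doses. 4) Unreached endpoint = highest concentration. GI50 marks 50% less growth. The concentration for full growth arrest is given as TGI.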

Key:
Test in all cases: NCI-60 cell line screen, 48 h
HL-60(TB) leukemia = system: HL-60(TB) leukemia
MCF7 breast = system: MCF7 breast
A549 NSCLC = system: A549 NSCLC
HCT-116 colon = system: HCT-116 colon
COLO 205 colon = system: COLO 205 colon
SN12C renal = system: SN12C renal
HS 578T breast = system: HS 578T breast
KM12 colon = system: KM12 colon
SNB-19 CNS = system: SNB-19 CNS
786-0 renal = system: 786-0 renal
NCI/ADR-RES ovarian = system: NCI/ADR-RES ovarian
DU-145 prostate = system: DU-145 prostate
TK-10 renal = system: TK-10 renal
SF-268 CNS = system: SF-268 CNS
NCI-H460 lung = system: NCI-H460 lung
EKVX NSCLC = system: EKVX NSCLC
U251 CNS = system: U251 CNS
SK-MEL-2 melanoma = system: SK-MEL-2 melanoma
HOP-92 NSCLC = system: HOP-92 NSCLC
ACHN renal = system: ACHN renal
SF-539 CNS = system: SF-539 CNS
SW-620 colon = system: SW-620 colon
OVCAR-8 ovarian = system: OVCAR-8 ovarian
HCT-15 colon = system: HCT-15 colon
UO-31 renal = system: UO-31 renal
CCRF-CEM leukemia = system: CCRF-CEM leukemia
OVCAR-3 ovarian = system: OVCAR-3 ovarian
BT-549 breast = system: BT-549 breast
T-47D breast = system: T-47D breast
MOLT-4 leukemia = system: MOLT-4 leukemia
CAKI-1 renal = system: CAKI-1 renal
SK-OV-3 ovarian = system: SK-OV-3 ovarian
A498 renal = system: A498 renal
SK-MEL-28 melanoma = system: SK-MEL-28 melanoma
MDA-MB-435 = system: MDA-MB-435
HCC-2998 colon = system: HCC-2998 colon
UACC-257 melanoma = system: UACC-257 melanoma
NCI-H23 lung = system: NCI-H23 lung
LOX IMVI melanoma = system: LOX IMVI melanoma
UACC-62 melanoma = system: UACC-62 melanoma
SNB-75 CNS = system: SNB-75 CNS
K-562 leukemia = system: K-562 leukemia
SK-MEL-5 melanoma = system: SK-MEL-5 melanoma
RXF 393 renal = system: RXF 393 renal
PC-3 prostate = system: PC-3 prostate
SF-295 CNS = system: SF-295 CNS
MALME-3M melanoma = system: MALME-3M melanoma
NCI-H226 lung = system: NCI-H226 lung
RPMI-8226 leukemia = system: RPMI-8226 leukemia
OVCAR-4 ovarian = system: OVCAR-4 ovarian
HOP-62 NSCLC = system: HOP-62 NSCLC
MDA-MB-231 breast = system: MDA-MB-231 breast
OVCAR-5 ovarian = system: OVCAR-5 ovarian
HT29 colon = system: HT29 colon

Molecule `Ic1ccc2[nH]cc(SSc3c[nH]c4ccc(I)cc34)c2c1` has a GI50 (HL-60(TB) leukemia) of 1.18 µM, a TGI (HL-60(TB) leukemia) of 3.56 µM and a GI50 (MCF7 breast) of 2.69 µM. It also gave a TGI (MCF7 breast) of 11.6 µM, a GI50 (A549 NSCLC) of 3.65 µM and a TGI (A549 NSCLC) of 12 µM. The GI50 (HCT-116 colon) was 1.25 µM, the TGI (HCT-116 colon) was 3.08 µM and the GI50 (COLO 205 colon) was 1.91 µM. For the same molecule, the TGI (COLO 205 colon) was 4.02 µM, the GI50 (SN12C renal) was 2.86 µM and the TGI (SN12C renal) was 11 µM. For the same molecule, the GI50 (HS 578T breast) was 1.93 µM, the TGI (HS 578T breast) was 6.24 µM and the GI50 (KM12 colon) was 1.5 µM. It also gave a TGI (KM12 colon) of 5.83 µM, a GI50 (SNB-19 CNS) of 3.25 µM and a TGI (SNB-19 CNS) of 11.9 µM. For the same molecule, the GI50 (786-0 renal) was 3.49 µM, the TGI (786-0 renal) was 12.4 µM and the GI50 (NCI/ADR-RES ovarian) was 2.57 µM. The TGI (NCI/ADR-RES ovarian) was 7.13 µM, the GI50 (DU-145 prostate) was 3.47 µM and the TGI (DU-145 prostate) was 12.9 µM. The GI50 (TK-10 renal) was 2.88 µM, the TGI (TK-10 renal) was 10.1 µM and the GI50 (SF-268 CNS) was 2.99 µM. The TGI (SF-268 CNS) was 10.9 µM, the GI50 (NCI-H460 lung) was 2.41 µM and the TGI (NCI-H460 lung) was 6.52 µM. The GI50 (EKVX NSCLC) was 1.2 µM, the TGI (EKVX NSCLC) was 10.1 µM and the GI50 (U251 CNS) was 2.25 µM. For the same molecule, the TGI (U251 CNS) was 10.1 µM, the GI50 (SK-MEL-2 melanoma) was 2.3 µM and the TGI (SK-MEL-2 melanoma) was 6.96 µM. It also gave a GI50 (HOP-92 NSCLC) of 0.936 µM, a TGI (HOP-92 NSCLC) of 3.69 µM and a GI50 (ACHN renal) of 2.25 µM. The TGI (ACHN renal) was 6.99 µM, the GI50 (SF-539 CNS) was 2.39 µM and the TGI (SF-539 CNS) was 9.29 µM. The GI50 (SW-620 colon) was 2.74 µM, the TGI (SW-620 colon) was 10.5 µM and the GI50 (OVCAR-8 ovarian) was 3.77 µM. The TGI (OVCAR-8 ovarian) was 17.8 µM, the GI50 (HCT-15 colon) was 2.21 µM and the TGI (HCT-15 colon) was 10.4 µM. For the same molecule, the GI50 (UO-31 renal) was 3.06 µM, the TGI (UO-31 renal) was 17.3 µM and the GI50 (CCRF-CEM leukemia) was 1.25 µM. The TGI (CCRF-CEM leukemia) was 3.48 µM, the GI50 (OVCAR-3 ovarian) was 1.73 µM and the TGI (OVCAR-3 ovarian) was 5.56 µM. For the same molecule, the GI50 (BT-549 breast) was 1.35 µM, the TGI (BT-549 breast) was 7.04 µM and the GI50 (T-47D breast) was 2.68 µM. It also gave a TGI (T-47D breast) of 11.2 µM, a GI50 (MOLT-4 leukemia) of 1.7 µM and a TGI (MOLT-4 leukemia) of 4.62 µM. It also gave a GI50 (CAKI-1 renal) of 2.23 µM, a TGI (CAKI-1 renal) of 6.3 µM and a GI50 (SK-OV-3 ovarian) of 3.46 µM. The TGI (SK-OV-3 ovarian) was 11.7 µM, the GI50 (A498 renal) was 2.06 µM and the TGI (A498 renal) was 5.97 µM. For the same molecule, the GI50 (SK-MEL-28 melanoma) was 3.36 µM, the TGI (SK-MEL-28 melanoma) was 12.6 µM and the GI50 (MDA-MB-435) was 2.84 µM. For the same molecule, the TGI (MDA-MB-435) was 8.97 µM, the GI50 (HCC-2998 colon) was 2.34 µM and the TGI (HCC-2998 colon) was 4.76 µM. It also gave a GI50 (UACC-257 melanoma) of 2.79 µM, a TGI (UACC-257 melanoma) of 6.74 µM and a GI50 (NCI-H23 lung) of 2.36 µM. It also gave a TGI (NCI-H23 lung) of 7.96 µM, a GI50 (LOX IMVI melanoma) of 1.43 µM and a TGI (LOX IMVI melanoma) of 3.51 µM. It also gave a GI50 (UACC-62 melanoma) of 2.7 µM, a TGI (UACC-62 melanoma) of 11.5 µM and a GI50 (SNB-75 CNS) of 2.36 µM. For the same molecule, the TGI (SNB-75 CNS) was 9.28 µM, the GI50 (K-562 leukemia) was 2 µM and the TGI (K-562 leukemia) was 6.27 µM. For the same molecule, the GI50 (SK-MEL-5 melanoma) was 3.18 µM, the TGI (SK-MEL-5 melanoma) was 13.5 µM and the GI50 (RXF 393 renal) was 1.5 µM. For the same molecule, the TGI (RXF 393 renal) was 5.68 µM, the GI50 (PC-3 prostate) was 0.492 µM and the TGI (PC-3 prostate) was 4.65 µM. The GI50 (SF-295 CNS) was 1.89 µM, the TGI (SF-295 CNS) was 4.69 µM and the GI50 (MALME-3M melanoma) was 1.92 µM. For the same molecule, the TGI (MALME-3M melanoma) was 8.29 µM, the GI50 (NCI-H226 lung) was 1.98 µM and the TGI (NCI-H226 lung) was 9.35 µM. The GI50 (RPMI-8226 leukemia) was 1.78 µM, the TGI (RPMI-8226 leukemia) was 5.5 µM and the GI50 (OVCAR-4 ovarian) was 3.02 µM. The TGI (OVCAR-4 ovarian) was 16.6 µM, the GI50 (HOP-62 NSCLC) was 3.14 µM and the TGI (HOP-62 NSCLC) was 8.71 µM. It also gave a GI50 (MDA-MB-231 breast) of 2.1 µM, a TGI (MDA-MB-231 breast) of 5.13 µM and a GI50 (OVCAR-5 ovarian) of 2.38 µM. It also gave a TGI (OVCAR-5 ovarian) of 6.11 µM, a GI50 (HT29 colon) of 3.36 µM and a TGI (HT29 colon) of 11.2 µM.
